The target in the experiment is human dUTPase (Homo sapiens (Human), UniProt P33316). Nature of the experiment: Human dUTPase inhibitory effect: production of [5-3H]dUMP from [5-3H]dUTP, measured by HPLC with flow scintillation. To be noted: [5-3H]dUMP production from [5-3H]dUTP, 37° C., 15 minutes. Format: biochemical. A digest of the protocol:
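E. coli-expressed purified human dUTPase reacted with 1 μM dUTP stock containing [5-3H]dUTP in Tris pH 7.4, MgCl2, 2-mercaptoethanol and albumin, 15 min at 37° C; stopped by 1 min at 100° C. [5-3H]dUMP formed was separated by reversed-phase ion-pair HPLC and quantified by flow scintillation versus water control.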

Sequence of human dUTPase (P33316 94-252): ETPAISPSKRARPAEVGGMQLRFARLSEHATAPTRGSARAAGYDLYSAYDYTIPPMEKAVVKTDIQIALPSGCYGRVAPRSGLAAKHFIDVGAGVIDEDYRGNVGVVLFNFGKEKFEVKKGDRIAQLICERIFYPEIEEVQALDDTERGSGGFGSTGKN

Usually IC50 stands for the concentration at which inhibition is half-maximal. `O=c1ccn(CCCS(=O)(=O)N2CCC[C@@H]2C(O)(c2cccc(F)c2)c2cccc(F)c2)c(=O)[nH]1` [Example 132, (R)-1-(3-(2-(bis(3-fluorophenyl)(hydroxy)methyl)pyrrolidin-1-ylsulfonyl)propyl)pyrimidine-2,4(1H, 3H)-dione] had an IC50 of 0.38 µM. For `CN(CC1(c2ccccc2)CC1)S(=O)(=O)CCCn1ccc(=O)[nH]c1=O` [Example 133, 3-(2,4-dioxo-3,4-dihydropyrimidin-1(2H)-yl)-N-methyl-N-((1-phenylcyclopropyl)methyl)propane-1-sulfonamide] the value was 6.56 µM; for `CN(CCc1cccc(OCC2CC2)c1)S(=O)(=O)CCCn1ccc(=O)[nH]c1=O` [Example 134, N-(3-(cyclopropylmethoxy)phenethyl)-3-(2,4-dioxo-3,4-dihydropyrimidin-1(2H)-yl)-N-methylpropane-1-sulfonamide], 4.54 µM. For `COc1cccc(S(=O)(=O)NC(C)(C)CCCOCn2ccc(=O)[nH]c2=O)c1` [Example 135, N-(5-((2,4-dioxo-3,4-dihydropyrimidin-1(2H)-yl)methoxy)-2-methylpentan-2-yl)-3-methoxybenzenesulfonamide] the value was 1.12 µM; for `CC(C)(CCCOCn1ccc(=O)[nH]c1=O)NS(=O)(=O)c1ccc(Cl)cc1` [Example 136, 4-chloro-N-(5-((2,4-dioxo-3,4-dihydropyrimidin-1(2H)-yl)methoxy)-2-methylpentan-2-yl)benzenesulfonamide], 3.94 µM. On to `CC(C)(CCCOCn1ccc(=O)[nH]c1=O)NS(=O)(=O)c1ccc(Cl)c(Cl)c1` [Example 137, 3,4-dichloro-N-(5-((2,4-dioxo-3,4-dihydropyrimidin-1(2H)-yl)methoxy)-2-methylpentan-2-yl)benzenesulfonamide], for which 2.05 µM corresponded to half-maximal inhibition (IC50). The figure for `CC(C)(CCCOCn1ccc(=O)[nH]c1=O)NS(=O)(=O)c1cc(Cl)c(Cl)s1` [Example 138, 4,5-dichloro-N-(5-((2,4-dioxo-3,4-dihydropyrimidin-1(2H)-yl)methoxy)-2-methylpentan-2-yl)thiophene-2-sulfonamide] is 3.89 µM; for `CC(C)(CCCOCn1ccc(=O)[nH]c1=O)NS(=O)(=O)c1cc(Cl)cc(Cl)c1` [Example 139, 3,5-dichloro-N-(5-((2,4-dioxo-3,4-dihydropyrimidin-1(2H)-yl)methoxy)-2-methylpentan-2-yl)benzenesulfonamide] it is 4.99 µM; for `CC(C)(CCCOCn1ccc(=O)[nH]c1=O)NS(=O)(=O)c1cccc(Br)c1` [Example 141, 3-bromo-N-(5-((2,4-dioxo-3,4-dihydropyrimidin-1(2H)-yl)methoxy)-2-methylpentan-2-yl)benzenesulfonamide] it is 4.35 µM. As to `CC(C)(CCCOCn1ccc(=O)[nH]c1=O)NS(=O)(=O)c1ccccc1Cl` [Example 142, 2-chloro-N-(5-((2,4-dioxo-3,4-dihydropyrimidin-1(2H)-yl)methoxy)-2-methylpentan-2-yl)benzenesulfonamide], the 50% inhibitory concentration (IC50) came out at 7.64 µM. In turn, `CC(C)(CCCOCn1ccc(=O)[nH]c1=O)NS(=O)(=O)c1cccc(OC(F)F)c1` [Example 145, 3-(difluoromethoxy)-N-(5-((2,4-dioxo-3,4-dihydropyrimidin-1(2H)-yl)methoxy)-2-methylpentan-2-yl)benzenesulfonamide] gave an IC50 of 6.29 µM. The IC50 values of the last two compounds are within 1.5-fold of each other.

`CC(C)(CCCOCn1ccc(=O)[nH]c1=O)NS(=O)(=O)c1cccc(OC(=O)c2ccccc2)c1` [Example 146, 3-(N-(5-((2,4-dioxo-3,4-dihydropyrimidin-1(2H)-yl)methoxy)-2-methylpentan-2-yl)sulfamoyl)phenylbenzoate] came in with an IC50 of 8.68 µM. For `CN(C)c1cccc2c(S(=O)(=O)NC(C)(C)CCCOCn3ccc(=O)[nH]c3=O)cccc12` [Example 147, 5-(dimethylamino)-N-(5-((2,4-dioxo-3,4-dihydropyrimidin-1(2H)-yl)methoxy)-2-methylpentan-2-yl)naphthalene-1-sulfonamide] the value was 9.5 µM; for `CC(C)(CCCOCn1ccc(=O)[nH]c1=O)NS(=O)(=O)c1cccc(Cl)c1` [Example 148, 3-chloro-N-(5-((2,4-dioxo-3,4-dihydropyrimidin-1(2H)-yl)methoxy)-2-methylpentan-2-yl)benzenesulfonamide], 2.77 µM; for `CC(C)(CCCOCn1ccc(=O)[nH]c1=O)NS(=O)(=O)c1cc(Br)c(Br)s1` [Example 149, 4,5-dibromo-N-(5-((2,4-dioxo-3,4-dihydropyrimidin-1(2H)-yl)methoxy)-2-methylpentan-2-yl)thiophene-2-sulfonamide], 7.65 µM. Turning to `CC(C)(CCCOCn1ccc(=O)[nH]c1=O)NS(=O)(=O)c1cccc(F)c1` [Example 150, N-(5-((2,4-dioxo-3,4-dihydropyrimidin-1(2H)-yl)methoxy)-2-methylpentan-2-yl)-3-fluorobenzenesulfonamide], the IC50 amounted to 5.67 µM. The IC50 values of the last two compounds are within 1.5-fold of each other. The figure for `Cc1ccccc1S(=O)(=O)NC(C)(C)CCCOCn1ccc(=O)[nH]c1=O` [Example 151, N-(5-((2,4-dioxo-3,4-dihydropyrimidin-1(2H)-yl)methoxy)-2-methylpentan-2-yl)-2-methylbenzenesulfonamide] is 5.7 µM; for `Cc1cccc(S(=O)(=O)NC(C)(C)CCCOCn2ccc(=O)[nH]c2=O)c1` [Example 154, N-(5-((2,4-dioxo-3,4-dihydropyrimidin-1(2H)-yl)methoxy)-2-methylpentan-2-yl)-3-methylbenzenesulfonamide] it is 8.82 µM; for `CC(C)(CCCOCn1ccc(=O)[nH]c1=O)NS(=O)(=O)c1ccccc1Br` [Example 156, 2-bromo-N-(5-((2,4-dioxo-3,4-dihydropyrimidin-1(2H)-yl)methoxy)-2-methylpentan-2-yl)benzenesulfonamide] it is 8.94 µM. The figure for `CC(C)(CCCOCn1ccc(=O)[nH]c1=O)NS(=O)(=O)c1ccccc1` [Example 158, N-(5-((2,4-dioxo-3,4-dihydropyrimidin-1(2H)-yl)methoxy)-2-methylpentan-2-yl)benzenesulfonamide] is 9.48 µM.

`CC(C)(CCCOCn1ccc(=O)[nH]c1=O)NS(=O)(=O)c1cccc(OCC2CC2)c1` [Example 159, 3-(cyclopropylmethoxy)-N-(5-((2,4-dioxo-3,4-dihydropyrimidin-1(2H)-yl)methoxy)-2-methylpentan-2-yl)benzenesulfonamide] displayed a concentration for half-maximal inhibition (IC50) of 0.26 µM. For `CC(C)(CCCOCn1ccc(=O)[nH]c1=O)NS(=O)(=O)c1cccc(OCC(F)F)c1` [Example 160, 3-(2,2-difluoroethoxy)-N-(5-((2,4-dioxo-3,4-dihydropyrimidin-1(2H)-yl)methoxy)-2-methylpentan-2-yl)benzenesulfonamide] the value was 0.14 µM. The figure for `CC(C)(CCCOCn1ccc(=O)[nH]c1=O)NS(=O)(=O)c1cccc(OC2CCCC2)c1` [Example 161, 3-(cyclopentyloxy)-N-(5-((2,4-dioxo-3,4-dihydropyrimidin-1(2H)-yl)methoxy)-2-methylpentan-2-yl)benzenesulfonamide] is 0.24 µM. The figure for `C/C=C\c1cccc(S(=O)(=O)NC(C)(C)CCCOCn2ccc(=O)[nH]c2=O)c1` [Example 162, (Z)—N-(5-((2,4-dioxo-3,4-dihydropyrimidin-1(2H)-yl)methoxy)-2-methylpentan-2-yl)-3-(prop-1-enyl)benzenesulfonamide] is 3.96 µM. With `O=c1ccn(COCCCC2(NS(=O)(=O)c3ccccc3)CC2)c(=O)[nH]1` [Example 164, N-(1-(3-((2,4-dioxo-3,4-dihydropyrimidin-1(2H)-yl)methoxy)propyl)cyclopropyl)benzenesulfonamide], the IC50 was 6.02 µM. The figure for `COc1cccc(S(=O)(=O)NC2(CCCOCn3ccc(=O)[nH]c3=O)CC2)c1` [Example 165, N-(1-(3-((2,4-dioxo-3,4-dihydropyrimidin-1(2H)-yl)methoxy)propyl)cyclopropyl)-3-methoxybenzenesulfonamide] is 1.86 µM. The figure for `O=c1ccn(COCCCCNS(=O)(=O)c2cccc(OCC3CC3)c2)c(=O)[nH]1` [Example 166, 3-(cyclopropylmethoxy)-N-(4-((2,4-dioxo-3,4-dihydropyrimidin-1(2H)-yl)methoxy)butyl)benzenesulfonamide] is 0.64 µM; for `O=c1ccn(COCCCC2(NS(=O)(=O)c3cccc(OCC4CC4)c3)CC2)c(=O)[nH]1` [Example 167, 3-(cyclopropylmethoxy)-N-(1-(3-((2,4-dioxo-3,4-dihydropyrimidin-1(2H)-yl)methoxy)propyl)cyclopropyl)benzenesulfonamide] it is 0.13 µM; for `CC(C)(NS(=O)(=O)c1ccccc1)c1ccc(Cn2ccc(=O)[nH]c2=O)cc1` [Example 176, N-(2-(4-((2,4-dioxo-3,4-dihydropyrimidin-1(2H)-yl)methyl)phenyl)propan-2-yl)benzenesulfonamide] it is 2.69 µM. For `COc1cccc(S(=O)(=O)NC(C)(C)c2ccc(Cn3ccc(=O)[nH]c3=O)cc2)c1` [Example 177, N-(2-(4-((2,4-dioxo-3,4-dihydropyrimidin-1(2H)-yl)methyl)phenyl)propan-2-yl)-3-methoxybenzenesulfonamide] the value was 2.57 µM. The compound `CC(C)(NS(=O)(=O)c1cccc(OCC2CC2)c1)c1ccc(Cn2ccc(=O)[nH]c2=O)cc1` [Example 178, 3-(cyclopropanemethoxy)-N-(2-(4-((2,4-dioxo-3,4-dihydropyrimidin-1(2H)-yl)methyl)phenyl)propan-2-yl)benzenesulfonamide] displayed an IC50 of 0.24 µM. Compound `CC(C)(NS(=O)(=O)c1cccc(OCC2CC2)c1)c1ccc(Cn2ccc(=O)[nH]c2=O)nc1` [Example 179, 3-(cyclopropanemethoxy)-N-(2-(6-((2,4-dioxo-3,4-dihydropyrimidin-1(2H)-yl)methyl)pyridin-3-yl)propan-2-yl)benzenesulfonamide] had a concentration for half-maximal inhibition (IC50) of 0.11 µM. Against the preceding compound, the IC50 is about 2.2-fold lower.

For the origin of these results see patent publication US8530490B2, “Uracil compound or salt thereof having human deoxyuridine triphosphatase inhibitory activity” (Taiho Pharmaceutical Co., Ltd., priority 2008, dated 2013).
